Measurements from publication PMC9820311, “Characterization of a Novel Amphiphilic Cationic Chlorin Photosensitizer for Photodynamic Applications” (International Journal of Molecular Sciences, 2022).

Molecular target: T1, bovine serum albumin (BSA) (Bos taurus, UniProt P02769)
T1 construct: gene ALB
Assay: BSA intrinsic fluorescence quenching titration (Stern-Volmer; λex = […] nm, […] BSA), supported by chlorin fluorescence increase and DLS
Type: binding
Conditions: read-out: BSA intrinsic fluorescence quenching titration (Stern-Volmer); λex = 290 nm, 5 μM (converted)

T1 sequence (P02769 25-607): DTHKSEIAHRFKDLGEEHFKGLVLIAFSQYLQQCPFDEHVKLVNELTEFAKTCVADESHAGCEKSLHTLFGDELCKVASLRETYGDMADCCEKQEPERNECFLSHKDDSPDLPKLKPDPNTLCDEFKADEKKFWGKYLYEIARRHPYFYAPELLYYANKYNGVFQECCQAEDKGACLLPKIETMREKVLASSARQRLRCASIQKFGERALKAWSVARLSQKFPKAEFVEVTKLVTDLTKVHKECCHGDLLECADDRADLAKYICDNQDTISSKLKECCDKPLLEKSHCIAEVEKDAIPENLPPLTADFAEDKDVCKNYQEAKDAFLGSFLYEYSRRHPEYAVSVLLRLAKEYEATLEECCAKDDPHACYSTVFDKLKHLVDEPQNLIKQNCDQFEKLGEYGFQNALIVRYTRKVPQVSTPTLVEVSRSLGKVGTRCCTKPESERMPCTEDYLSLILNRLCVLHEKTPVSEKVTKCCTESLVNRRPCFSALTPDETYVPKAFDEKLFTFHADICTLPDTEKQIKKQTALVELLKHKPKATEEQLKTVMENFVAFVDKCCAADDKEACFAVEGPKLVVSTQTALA

Kd: 2740 nM
SMILES: CCC1=C(C)c2cc3[nH]c(cc4nc(c(CC(=O)OC)c5[nH]c(cc1n2)c(C)c5C(=O)NC)[C@@H](CCC(=O)OC/C=C(\C)CCCC(C)CCCC(C)CCCC(C)C)[C@@H]4C)c(C)c3C(=CC[N+](C)(C)C)C[N+](C)(C)C (mixture of isomers) [compound 1, 3(1),3(2)-bis(N,N,N-trimethylaminomethyliodide) chlorin e6 13(1)-N-methylamide-15(2)-methyl,17(3)-phytyl ester]
